Reference: patent US8987195B2 (priority 2012, dated 2015)
Where two headings read alike, the source gives them in different places.

Assays:
[1] = molecular target: HCV NS3/4A protease genotype 1b (Hepatitis C virus genotype 1b, UniProt P26663); test: HCV NS3/4A protease time-resolved fluorescence (TRF) assay, Ki against genotype 1b; format: biochemical
Summary of the method: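 Enzyme 0.2 nM 1b / 0.4 nM A156T / 0.025 nM 3a; 30 min preinc. w/ cpd; 25 nM TRF peptide; 2.5 h RT; ex 340/em 615 time-delayed; 4-param IC50 → Ki = IC50/(1+[S]/KM).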

[2] = test system: HCV genotype 1b replicon; test: HCV replicon assay, genotype 1b replicon EC50; format: cell-based, Hepatitis C virus; settings: Hepatitis C virus, read-out: EC50 [gt-1b]
Summary of the method: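 Readout was replicon RNA copy number, by 32P-probe protection or TaqMan normalized to cellular cyclophilin A RNA, or luciferase activity for luciferase:Neo^r fusion lines. Cells were exposed to serially diluted compound for 24-48 hours without G418, then washed and lysed. EC50 derived from four-parameter fit relative to DMSO.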

[3] = IC50 [gt-1b] (nM), NS3/4A genotype 1b, enzyme 0.2 nM
[4] = IC50 [gt-1b], NS3/4A protease TRF assay, genotype 1b enzyme 0.2 nM, K+ salt
[5] = HCV replicon, genotype 1b, K+ salt
[6] = IC50 [gt-1b], NS3/4A protease TRF assay, genotype 1b enzyme 0.2 nM
[7] = IC50 [gt-1b] (nM), NS3/4A genotype 1b, enzyme 0.2 nM, K+ salt

Compound | IC50 [1, 3] [nM] | EC50 ([2]; genotype 1b replicon) [pM] | further results
Cc1nc2cc(F)c(F)cc2c2c1O[C@]1(CC2)C[C@H]2C(=O)N[C@]3(C(=O)NS(=O)(=O)C4(C)CC4)C[C@H]3/C=C\CCCCC[C@H](NC(=O)OC(C)(C)C)C(=O)N2C1 [Example 188, tert-butyl [(2R,6S,12Z,13aS,14aR,16aS)-8′,9′-difluoro-5′-methyl-14a-{[(1-methylcyclopropyl)sulfonyl]carbamoyl}-5,16-dioxo-1,1′,2′,5,6,7,8,9,10,11,13a,14,14a,15,16,16a-hexadecahydrospiro[cyclopropa[e]pyrrolo[1,2-a][1,4]diazacyclopentadecine-2,3′-pyrano[2,3-c]quinolin]-6-yl]carbamate] | 0.006 | 3850 | 
CC(C)(C)OC(=O)N[C@H]1CCCCC/C=C\[C@@H]2C[C@@]2(C(=O)NS(=O)(=O)C2(C)CC2)NC(=O)[C@@H]2C[C@]3(CCc4c(c(C(F)(F)F)nc5ccccc45)O3)CN2C1=O [Example 4, tert-Butyl (2R,6S,13aS,14aR,16aS,Z)-14a-(1-methylcyclopropylsulfonylcarbamoyl)-5,16-dioxo-5′-(trifluoromethyl)-1′,2′,3,5,6,7,8,9,10,11,13a,14,14a,15,16,16a-hexadecahydro-1H-spiro[cyclopropa[e]pyrrolo[1,2-a][1,4]diazacyclopentadecine-2,3′-pyrano[2,3-c]quinoline]-6-ylcarbamate] | 0.009 | 813 | 
CCc1nc2ccc(OCCCOC)cc2c2c1O[C@]1(CC2)C[C@H]2C(=O)N[C@]3(C(=O)NS(=O)(=O)C4(C)CC4)C[C@H]3/C=C\CCCCC[C@H](NC(=O)O[C@@H](C)C(C)C)C(=O)N2C1 [Example 487, (2S)-3-methylbutan-2-yl [(2R,6S,12Z,13aS,14aR,16aS)-5′-ethyl-9′-(3-methoxypropoxy)-14a-{[(1-methylcyclopropyl)sulfonyl]carbamoyl}-5,16-dioxo-1,1′,2′,5,6,7,8,9,10,11,13a,14,14a,15,16,16a-hexadecahydrospiro[cyclopropa[e]pyrrolo[1,2-a][1,4]diazacyclopentadecine-2,3′-pyrano[2,3-c]quinolin]-6-yl]carbamate] |  |  | IC50 [1, 4]: 0.005 nM; EC50 [2, 5]: 343 pM
Cc1nc2ccc(OCCN3CCOCC3)cc2c2c1O[C@]1(CC2)C[C@H]2C(=O)N[C@]3(C(=O)NS(=O)(=O)C4(C)CC4)C[C@H]3/C=C\CCCCC[C@H](NC(=O)OCC(C)(C)C)C(=O)N2C1 [Example 425, 2,2-dimethylpropyl {(2R,6S,12Z,13aS,14aR,16aS)-5′-methyl-14a-{[(1-methylcyclopropyl)sulfonyl]carbamoyl}-9′-[2-(morpholin-4-yl)ethoxy]-5,16-dioxo-1,1′,2′,5,6,7,8,9,10,11,13a,14,14a,15,16,16a-hexadecahydrospiro[cyclopropa[e]pyrrolo[1,2-a][1,4]diazacyclopentadecine-2,3′-pyrano[2,3-c]quinolin]-6-yl}carbamate] |  |  | IC50 [1, 6]: 0.024 nM; EC50 ([2]; HCV replicon, genotype 1b): 3290 pM
CC[C@H](C)OC(=O)N[C@H]1CCCCC/C=C\[C@@H]2C[C@@]2(C(=O)NS(=O)(=O)C2(C)CC2)NC(=O)[C@@H]2C[C@]3(CCc4c(c(C(F)F)nc5ccc(OC)cc45)O3)CN2C1=O [Example 444, (2S)-butan-2-yl [(2R,6S,12Z,13aS,14aR,16aS)-5′-(difluoromethyl)-9′-methoxy-14a-{[(1-methylcyclopropyl)sulfonyl]carbamoyl}-5,16-dioxo-1,1′,2′,5,6,7,8,9,10,11,13a,14,14a,15,16,16a-hexadecahydrospiro[cyclopropa[e]pyrrolo[1,2-a][1,4]diazacyclopentadecine-2,3′-pyrano[2,3-c]quinolin]-6-yl]carbamate] |  |  | IC50 [1, 4]: 0.014 nM; EC50 [2, 5]: 1310 pM
COc1ccc2nc(C(F)(F)F)c3c(c2c1)CC[C@]1(C[C@H]2C(=O)N[C@]4(C(=O)NS(=O)(=O)C5(C)CC5)C[C@H]4/C=C\CCCCC[C@H](NC(=O)O[C@@H](C)C(C)C)C(=O)N2C1)O3 [Example 351, (2S)-3-methylbutan-2-yl [(2R,6S,12Z,13aS,14aR,16aS)-9′-methoxy-14a-{[(1-methylcyclopropyl)sulfonyl]carbamoyl}-5,16-dioxo-5′-(trifluoromethyl)-1,1′,2′,5,6,7,8,9,10,11,13a,14,14a,15,16,16a-hexadecahydrospiro[cyclopropa[e]pyrrolo[1,2-a][1,4]diazacyclopentadecine-2,3′-pyrano[2,3-c]quinolin]-6-yl]carbamate] |  |  | IC50 [1, 7]: 0.029 nM; EC50 ([2]; genotype 1b replicon, K+ salt): 2200 pM
Cc1nc2ccc(OC(F)(F)F)cc2c2c1O[C@]1(CC2)C[C@H]2C(=O)N[C@]3(C(=O)NS(=O)(=O)C4(C)CC4)C[C@H]3/C=C\CCCCC[C@H](NC(=O)OC3CCC3)C(=O)N2C1 [Example 180, cyclobutyl [(2R,6S,12Z,13aS,14aR,16aS)-5′-methyl-14a-{[(1-methylcyclopropyl)sulfonyl]carbamoyl}-5,16-dioxo-9′-(trifluoromethoxy)-1,1′,2′,5,6,7,8,9,10,11,13a,14,14a,15,16,16a-hexadecahydrospiro[cyclopropa[e]pyrrolo[1,2-a][1,4]diazacyclopentadecine-2,3′-pyrano[2,3-c]quinolin]-6-yl]carbamate] | 0.012 | 1720 | 
Cc1nc2ccccc2c2c1O[C@]1(CC2)C[C@H]2C(=O)N[C@]3(C(=O)NS(=O)(=O)C4(C)CC4)C[C@H]3/C=C\CCCCC[C@H](Nc3ncccn3)C(=O)N2C1 [Example 359, (2R,6S,12Z,13aS,14aR,16aS)-5′-methyl-N-[(1-methylcyclopropyl)sulfonyl]-5,16-dioxo-6-(pyrimidin-2-ylamino)-1,1′,2′,6,7,8,9,10,11,13a,14,15,16,16a-tetradecahydrospiro[cyclopropa[e]pyrrolo[1,2-a][1,4]diazacyclopentadecine-2,3′-pyrano[2,3-c]quinoline]-14a(5H)-carboxamide] |  |  | IC50 [1, 6]: 0.4 nM; EC50 ([2]; HCV replicon, genotype 1b): 205000 pM
Cc1nc2c(F)cccc2c2c1O[C@]1(CC2)C[C@H]2C(=O)NC3(C(=O)NS(=O)(=O)C4(C)CC4)C[C@H]3/C=C\CCCCC[C@H](NC(=O)OC(C)(C)C)C(=O)N2C1 (stereo partly drawn) [Example 45, tert-Butyl (1aR,3aS,3′R,9S,16aS,Z)-7′-fluoro-5′-methyl-1a-(1-methylcyclopropylsulfonylcarbamoyl)-3,8-dioxo-1a,1′,2,2′,3,3a,4,6,8,9,10,11,12,13,14,16a-hexadecahydro-1H-spiro[cyclopropa[e]pyrrolo[1,2-a][1,4]diazacyclopentadecine-5,3′-pyrano[2,3-c]quinoline]-9-ylcarbamate] | 0.011 | 1100 | 
COc1ccc2nc(C(F)(F)F)c3c(c2c1)[C@H](O)C[C@]1(C[C@H]2C(=O)N[C@]4(C(=O)NS(=O)(=O)C5(C)CC5)C[C@H]4/C=C\CCCCC[C@H](NC(=O)OC(C)(C)C)C(=O)N2C1)O3 [Example 54, tert-Butyl [(1′R,2S,6S,12Z,13aS,14aR,16aS)-1′-hydroxy-9′-methoxy-14a-{[(1-methylcyclopropyl)sulfonyl]carbamoyl}-5,16-dioxo-5′-(trifluoromethyl) -1,1′,2′,5,6,7,8,9,10,11,13a,14,14a,15,16,16a-hexadecahydrospiro[cyclopropa[e]pyrrolo[1,2-a][1,4]diazacyclopentadecine-2,3′-pyrano[2,3-c]quinolin]-6-yl]carbamate] | 0.012 | 1180 | 
Cc1nc2ccccc2c2c1O[C@]1(CC2O)C[C@H]2C(=O)N[C@]3(C(=O)NS(=O)(=O)C4(C)CC4)C[C@H]3/C=C\CCCCC[C@H](NC(=O)OC(C)C)C(=O)N2C1 (stereo partly drawn) [Example 119, propan-2-yl [(2S,6S,12Z,14aR,16aS)-1′-hydroxy-5′-methyl-14a-{[(1-methylcyclopropyl)sulfonyl]carbamoyl}-5,16-dioxo-1,1′,2′,5,6,7,8,9,10,11,13a,14,14a,15,16,16a-hexadecahydrospiro[cyclopropa[e]pyrrolo[1,2-a][1,4]diazacyclopentadecine-2,3′-pyrano[2,3-c]quinolin]-6-yl]carbamate] | 0.031 | ~78500 | 
CC(C)(C)COC(=O)N[C@H]1CCCCC/C=C\[C@@H]2C[C@@]2(C(=O)NS(=O)(=O)C2(C)CC2)NC(=O)[C@@H]2C[C@]3(CCc4c(c(C(F)F)nc5ccccc45)O3)CN2C1=O [Example 311, 2,2-dimethylpropyl [(2R,6S,12Z,13aS,14aR,16aS)-5′-(difluoromethyl)-14a-{[(1-methylcyclopropyl)sulfonyl]carbamoyl}-5,16-dioxo-1,1′,2′,5,6,7,8,9,10,11,13a,14,14a,15,16,16a-hexadecahydrospiro[cyclopropa[e]pyrrolo[1,2-a][1,4]diazacyclopentadecine-2,3′-pyrano[2,3-c]quinolin]-6-yl]carbamate] | 0.008 | 1230 | 
Cc1nc2cc(F)c(F)cc2c2c1O[C@]1(CC2)C[C@H]2C(=O)N[C@]3(C(=O)NS(=O)(=O)C4(C)CC4)C[C@H]3/C=C\CCCCC[C@H](NC(=O)OCC(C)(C)C)C(=O)N2C1 [Example 202, 2,2-dimethylpropyl [(2R,6S,12Z,13aS,14aR,16aS)-8′,9′-difluoro-5′-methyl-14a-{[(1-methylcyclopropyl)sulfonyl]carbamoyl}-5,16-dioxo-1,1′,2′,5,6,7,8,9,10,11,13a,14,14a,15,16,16a-hexadecahydrospiro[cyclopropa[e]pyrrolo[1,2-a][1,4]diazacyclopentadecine-2,3′-pyrano[2,3-c]quinolin]-6-yl]carbamate] |  |  | IC50 [1, 7]: 0.009 nM; EC50 ([2]; genotype 1b replicon, K+ salt): 1430 pM
